Results taken from PubChem BioAssay (NCI).
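Growth conditions: 96-well plates. Treatment: test compound, 48 hours, 5 concentrations. Analysis: linear interpolation between bracketing concentrations; unreached endpoints set to highest concentration. TGI: total growth inhibition.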

What was measured:
Assay in all cases: NCI-60 cell line screen, 48 h
[1] = test system: PC-3 prostate
[2] = test system: RPMI-8226 leukemia
[3] = test system: U251 CNS
[4] = test system: HCT-15 colon
[5] = test system: TK-10 renal
[6] = test system: OVCAR-5 ovarian
[7] = test system: 786-0 renal
[8] = test system: RXF 393 renal
[9] = test system: SF-295 CNS
[10] = test system: COLO 205 colon
[11] = test system: SF-539 CNS
[12] = test system: UACC-257 melanoma
[13] = test system: A549 NSCLC
[14] = test system: MOLT-4 leukemia
[15] = test system: CCRF-CEM leukemia
[16] = test system: HL-60(TB) leukemia
[17] = test system: K-562 leukemia
[18] = test system: KM12 colon
[19] = test system: T-47D breast
[20] = test system: SNB-19 CNS
[21] = test system: MCF7 breast
[22] = test system: SW-620 colon
[23] = test system: HOP-92 NSCLC
[24] = test system: NCI-H23 lung
[25] = test system: HS 578T breast
[26] = test system: OVCAR-8 ovarian
[27] = test system: ACHN renal
[28] = test system: SK-MEL-5 melanoma
[29] = test system: UO-31 renal
[30] = test system: M14 melanoma
[31] = test system: NCI-H226 lung
[32] = test system: SR leukemia
[33] = test system: EKVX NSCLC
[34] = test system: DU-145 prostate
[35] = test system: MDA-N
[36] = test system: SNB-75 CNS
[37] = test system: SK-MEL-28 melanoma
[38] = test system: MDA-MB-435
[39] = test system: MALME-3M melanoma
[40] = test system: HOP-62 NSCLC
[41] = test system: UACC-62 melanoma
[42] = test system: SK-OV-3 ovarian
[43] = test system: BT-549 breast
[44] = test system: HCT-116 colon
[45] = test system: OVCAR-3 ovarian
[46] = test system: SF-268 CNS
[47] = test system: SN12C renal
[48] = test system: NCI/ADR-RES ovarian
[49] = test system: IGROV1 ovarian
[50] = test system: NCI-H522 lung
[51] = test system: LOX IMVI melanoma
[52] = test system: CAKI-1 renal
[53] = test system: MDA-MB-231 breast
[54] = test system: OVCAR-4 ovarian
[55] = test system: SK-MEL-2 melanoma
[56] = test system: NCI-H460 lung
[57] = test system: HT29 colon
[58] = test system: HCC-2998 colon

Measured: TGI

Cc1ccc(C)n2c1nc1cc3ccccc3cc12
93 µM: [28]
94.4 µM: [29]
95.1 µM: [14]
> 100 µM: [1] | [2] | [3] | [4] | [5] | [6] | [7] | [8] | [9] | [10] | [11] | [12] | [13] | [15] | [16] | [17] | [18] | [19] | [20] | [22] | [23] | [24] | [25] | [26] | [27] | [30] | [31] | [32] | [33] | [34] | [35] | [37] | [38] | [39] | [40] | [42] | [43] | [44] | [45] | [46] | [47] | [48] | [49]
57.6 µM: [36]
57.1 µM: [41]
16 µM: [21]

CC(C)OC(=O)C1(C(C)C)CCc2ccc(C(=O)CCC(=O)O)cc21 (centres undefined)
> 100 µM: [1] | [2] | [3] | [4] | [5] | [6] | [7] | [8] | [9] | [50] | [10] | [11] | [12] | [51] | [13] | [14] | [15] | [52] | [16] | [53] | [17] | [18] | [19] | [20] | [21] | [54] | [22] | [24] | [25] | [26] | [27] | [28] | [29] | [30] | [31] | [55] | [32] | [33] | [34] | [35] | [36] | [37] | [56] | [39] | [40] | [41] | [42] | [57] | [43] | [58] | [44] | [46] | [47] | [48] | [49]
